Source: publication PMC11305242 (Heliyon, 2024)

Key:
[1] = biological target: alpha-amylase from Aspergillus oryzae (Aspergillus oryzae, UniProt P0C1B3); assay: In vitro alpha-amylase inhibition assay; format: biochemical
[2] = test system: advanced glycation end products (AGEs) formation (glycated BSA); assay: In vitro advanced glycation end products; format: biochemical; conditions: read-out: IC50 ± S.D. advanced glycation end product inhibitory activity, 37 °C, seven days in the dark, mean ± SD, n = 3, NA = no inhibitory activity
[3] = biological target: alpha-glucosidase enzyme from Saccharomyces cerevisiae recombinant; assay: In vitro alpha-glucosidase inhibition assay; format: biochemical; conditions: for IC50: read-out: IC50 ± S.D. alpha-glucosidase, mean ± SD, n = 3
[4] = test system: alpha-glucosidase; assay: Kinetics of alpha-glucosidase inhibition; format: biochemical, Saccharomyces cerevisiae; conditions: for mode of alpha-glucosidase inhibition: decreases in Vmax without changes in Km; for Vmax: substrate PNPG 0.25-2.0 mM

SMILES	IC50 [1]	IC50 [2]	IC50 [3]	also measured
Oc1ccc2c(c1)CCc1cc(O)cc(O)c1-2 [Compound 7, 2,4,7-trihydroxy-9,10-dihydrophenanthrene]	617 ± 11 µM	411 ± 15 µM	422 ± 7 µM	–
COc1cc(O)c2c(c1)CCc1cc(O)ccc1-2 [Compound 6, lusianthridin]	372.2 ± 2.74 µM	–	63.89 ± 0.27 µM	–
COc1cc(O)cc2ccc3cccc(O)c3c12 [Compound 5, moscatin]	–	–	32.5 ± 1.04 µM	fold greater alpha-glucosidase inhibitory potency than acarbose (Ki) ([4]; Ki relative to acarbose): approximately 9 fold; mode of alpha-glucosidase inhibition [4]: non-competitive; Km ([4]; inhibitor 30 μM): 1.62 mM; Vmax ([4]; inhibitor 30 μM): 0.017 △OD/min; Km ([4]; inhibitor 60 μM): 1.66 mM; Vmax ([4]; inhibitor 60 μM): 0.011 △OD/min; IC50 ± S.D. alpha-amylase ([1]; mean ± SD, n = 3, NA = no inhibitory activity): did not inhibit alpha-amylase activity; fold lower alpha-glucosidase IC50 than acarbose ([3]; IC50 relative to acarbose): approximately 10 fold
C[C@H]1O[C@H](O[C@H]2[C@H](O)[C@@H](O)[C@@H](O[C@H]3[C@H](O)[C@@H](O)C(O)O[C@@H]3CO)O[C@@H]2CO)[C@H](O)[C@@H](O)[C@@H]1N[C@H]1C=C(CO)[C@@H](O)[C@H](O)[C@H]1O (stereo partly drawn) [Acarbose, acarbose, reference compound]	–	–	–	mode of alpha-glucosidase inhibition [4]: non-competitive; Km ([4]; inhibitor 200 μM): 4.98 mM; Vmax ([4]; inhibitor 200 μM): 0.045 △OD/min; Km ([4]; inhibitor 400 μM): 4.96 mM; Vmax ([4]; inhibitor 400 μM): 0.030 △OD/min
N=C(N)NN [Aminoguanidine, aminoguanidine, reference compound]	–	327 ± 5.95 µM	–	–

Second part, led by results:

IC50 [1]	IC50 [2]	IC50 [3]	SMILES	also measured
332 ± 4.23 µM	–	231 ± 11.3 µM	COc1cc(O)cc(CCc2ccc(O)c(OC)c2)c1 [Compound 4, gigantol]	–
280 ± 9.76 µM	–	62.5 ± 2.85 µM	COc1cc2c(c(O)c1OC)-c1ccc(O)cc1CC2 [Compound 3, ephemeranthol A]	–
257 ± 9.87 µM	168 ± 9.42 µM	173 ± 5.84 µM	COc1cc(CCc2cc(OC)c(O)c(OC)c2)ccc1O [Compound 2, moscatilin]	–
